{"source": "ChEMBL document CHEMBL5244219", "about": "“Recent developments of quinolone-based derivatives and their activities against Escherichia coli” (Eur J Med Chem, 2018)", "key": {"Escherichia coli [1]": {"tested_on": "Escherichia coli", "experiment": "Antibacterial activity against Escherichia coli assessed as bacterial growth inhibition measured after 18 hrs by two-fold serial dilution method", "assay_type": "functional"}, "Escherichia coli [2]": {"tested_on": "Escherichia coli", "experiment": "Antibacterial activity against Escherichia coli ATCC 25922 infected in iv dosed mouse assessed as bacterial growth inhibition", "assay_type": "functional"}, "Escherichia coli [3]": {"tested_on": "Escherichia coli", "experiment": "Antibacterial activity against Escherichia coli ATCC 25922 infected in iv dosed rat assessed as log reduction in bacterial count in lung homogenate at 5 mg/kg", "assay_type": "functional"}, "Escherichia coli [4]": {"tested_on": "Escherichia coli", "experiment": "Antibacterial activity against Escherichia coli ATCC 8739 assessed as bacterial growth inhibition by agar dilution method", "assay_type": "functional"}, "Escherichia coli [5]": {"tested_on": "Escherichia coli", "experiment": "Potency index, ratio of ceftazidime MIC to compound IC50 for antibacterial activity against Escherichia coli DC0", "assay_type": "functional"}, "[6]": {"experiment": "Half life in marmoset at 3 mg/kg, iv", "assay_type": "ADME, organism-based", "details": "callitrichinae sp., in vivo"}, "Escherichia coli [7]": {"tested_on": "Escherichia coli", "experiment": "Antibacterial activity against Escherichia coli DC0 assessed as bacterial growth inhibition by agar dilution method", "assay_type": "functional"}, "[8]": {"experiment": "Protein binding in marmoset plasma", "assay_type": "ADME, cell-free, Callithrix jacchus", "details": "read-out: PPB (converted)"}, "Escherichia coli [9]": {"tested_on": "Escherichia coli", "experiment": "Antibacterial activity against Escherichia coli DC2 assessed as bacterial growth inhibition by agar dilution method", "assay_type": "functional"}, "[10]": {"experiment": "AUC in marmoset at 3 mg/kg, iv", "assay_type": "ADME, organism-based", "set-up": "dose 3 mg/kg, route iv", "details": "callitrichinae sp., in vivo"}, "Escherichia coli [11]": {"tested_on": "Escherichia coli", "experiment": "Potency index, ratio of ceftazidime MIC to compound IC50 for antibacterial activity against Escherichia coli DC2", "assay_type": "functional"}, "Escherichia coli [12]": {"tested_on": "Escherichia coli", "experiment": "In vivo antibacterial activity against Escherichia coli infected in po dosed CD-1 mouse assessed as bacterial growth inhibition", "assay_type": "functional", "details": "read-out: PD50"}, "Escherichia coli [13]": {"tested_on": "Escherichia coli", "experiment": "In vivo antibacterial activity against Escherichia coli infected in sc dosed CD-1 mouse assessed as bacterial growth inhibition", "assay_type": "functional", "details": "read-out: PD50"}, "Escherichia coli [14]": {"tested_on": "Escherichia coli", "experiment": "Antibacterial activity against Escherichia coli assessed as bacterial growth inhibition", "assay_type": "functional"}, "Escherichia coli [15]": {"tested_on": "Escherichia coli", "experiment": "Antibacterial activity against Escherichia coli KC-14 infected in po dosed mouse assessed as bacterial growth inhibition", "assay_type": "functional", "details": "Escherichia coli, KC-14, po, read-out: ED50"}, "Escherichia coli [16]": {"tested_on": "Escherichia coli", "experiment": "Antibacterial activity against nalidixic acid resistant Escherichia coli assessed as bacterial growth inhibition", "assay_type": "functional"}, "[17]": {"experiment": "Acute toxicity in iv dosed mouse assessed as lethal dose", "assay_type": "organism-based", "details": "in vivo"}, "Escherichia coli [18]": {"tested_on": "Escherichia coli", "experiment": "Potency index, ratio of clinafloxacin MIC to compound IC50 for antibacterial activity against Escherichia coli ATCC 700603", "assay_type": "functional"}, "Escherichia coli [19]": {"tested_on": "Escherichia coli", "experiment": "Antibacterial activity against Escherichia coli ATCC 700603 assessed as bacterial growth inhibition by agar dilution method", "assay_type": "functional"}, "Escherichia coli [20]": {"tested_on": "Escherichia coli", "experiment": "Potency index, ratio of ciprofloxacin MIC to compound IC50 for antibacterial activity against Escherichia coli ATCC 700603", "assay_type": "functional"}, "Escherichia coli [21]": {"tested_on": "Escherichia coli", "experiment": "Potency index, ratio of chloromycin MIC to compound IC50 for antibacterial activity against Escherichia coli ATCC 700603", "assay_type": "functional"}, "Escherichia coli [22]": {"tested_on": "Escherichia coli", "experiment": "Potency index, ratio of norfloxacin MIC to compound IC50 for antibacterial activity against Escherichia coli ATCC 700603", "assay_type": "functional"}}, "data": [{"smiles": "CC(C)(CF)n1cc(C(=O)O)c(=O)c2cc(F)c(N3CC[C@H](N)C3)cc21", "values": [{"measurement": "MIC", "setting": "Escherichia coli [1]", "result": 2, "unit": "ng/mL"}]}, {"smiles": "CN1CCN(c2cc3c(cc2F)c(=O)c(C(=O)O)cn3-c2ccc(OP(=O)(O)O)cc2)CC1", "values": [{"measurement": "ED50", "setting": "Escherichia coli [2]", "result": 0.74, "unit": "mg/kg"}, {"measurement": "log(activity)", "setting": "Escherichia coli [3]", "result": 2}]}, {"smiles": "CCn1cc(C(=O)O)c(=O)c2cc(F)c(N3CCN(CC(=O)c4ccoc4)CC3)cc21", "values": [{"measurement": "MIC", "setting": "Escherichia coli [4]", "result": 49, "unit": "ng/mL"}]}, {"smiles": "CCn1cc(C(=O)NCC2=C(C(=O)O)N3C(=O)[C@@H](NC(=O)/C(=N\\OC(C)(C)C(=O)O)c4csc(N)n4)C3SC2)c(=O)c2cc(O)c(O)cc21", "note": "(stereo in doubt)", "values": [{"measurement": "Ratio", "setting": "Escherichia coli [5]", "result": 8}, {"measurement": "half-life", "setting": "[6]", "result": 3.47, "unit": "h"}, {"measurement": "MIC", "setting": "Escherichia coli [7]", "result": 8, "unit": "ng/mL"}, {"measurement": "fraction unbound", "setting": "[8]", "result": 0.008}, {"measurement": "MIC", "setting": "Escherichia coli [9]", "result": 8, "unit": "ng/mL"}, {"measurement": "AUC", "setting": "[10]", "result": 238, "unit": "µg·h/mL"}, {"measurement": "Ratio", "setting": "Escherichia coli [11]", "result": 8}]}, {"smiles": "CCn1cc(C(=O)O)c(=O)c2cc(F)c(N3CCC4(CCN(C)C4)C3)cc21", "note": "(configuration not stated)", "values": [{"measurement": "ED50", "setting": "Escherichia coli [12]", "result": 3.4, "unit": "mg/kg"}, {"measurement": "ED50", "setting": "Escherichia coli [13]", "result": 8.4, "unit": "mg/kg"}, {"measurement": "MIC", "setting": "Escherichia coli [14]", "result": 6, "unit": "ng/mL"}]}, {"smiles": "CN1CCN(c2c(F)cc3c(=O)c(C(=O)O)c4scc5n4c3c2OC5)CC1", "values": [{"measurement": "ED50", "setting": "Escherichia coli [15]", "result": 1.01, "unit": "mg/kg"}, {"measurement": "MIC", "setting": "Escherichia coli [16]", "result": 200, "unit": "ng/mL"}, {"measurement": "LD50", "setting": "[17]", "result": 237, "unit": "mg/kg"}]}, {"smiles": "Cc1nc(N2CCOCC2)c([N+](=O)[O-])n1CC(O)CNC1CCN(c2c(F)cc3c(=O)c(C(=O)O)cn(C4CC4)c3c2Cl)C1", "note": "(configuration not stated)", "values": [{"measurement": "Ratio", "setting": "Escherichia coli [18]", "result": 2}, {"measurement": "MIC", "setting": "Escherichia coli [19]", "result": 500, "unit": "ng/mL"}, {"measurement": "Ratio", "setting": "Escherichia coli [20]", "result": 2}, {"measurement": "Ratio", "setting": "Escherichia coli [21]", "result": 2}, {"measurement": "Ratio", "setting": "Escherichia coli [22]", "result": 2}]}]}
